Source: DBAASP
≈ marks a conversion by molar mass, not a printed value.

Assays:
Test in all cases: ≥ marks a high value that may be exact or a test limit, other limits are often not marked, values filed in µg/mL are converted to µM
[1] = tested on: Citrobacter koseri MTCC 1657
[2] = tested on: Haemophilus influenzae MTCC 621
[3] = tested on: Staphylococcus aureus MTCC 3160
[4] = tested on: Pluralibacter gergoviae MTCC 3826
[5] = tested on: Shigella flexneri MTCC 1457
[6] = tested on: Corynebacterium glutamicum MTCC 2679
[7] = tested on: Pseudomonas aeruginosa MTCC 3542
[8] = tested on: Enterococcus faecalis MTCC 439
[9] = tested on: Staphylococcus haemolyticus MTCC 3383
[10] = tested on: Alcaligenes faecalis MTCC 1937
[11] = tested on: Shigella boydii MTCC 11947
[12] = tested on: Vibrio cholerae MTCC 3904
[13] = tested on: Escherichia coli K12 MG1655
[14] = tested on: Citrobacter freundii MTCC 1658
[15] = tested on: Bordetella bronchiseptica MTCC 6837
[16] = tested on: Alkalihalobacillus alcalophilus MTCC 860
[17] = tested on: Klebsiella oxytoca MTCC 2275
[18] = tested on: Stenotrophomonas maltophilia MTCC 1890
[19] = tested on: Klebsiella aerogenes MTCC 111
[20] = tested on: Acinetobacter baumannii MTCC 9829
[21] = tested on: Salmonella enterica subsp. enterica serovar Typhimurium ATCC 14028
[22] = tested on: Salmonella enterica MTCC 9844
[23] = tested on: Klebsiella pneumoniae MTCC 7407
[24] = tested on: Proteus vulgaris MTCC 1771
[25] = tested on: Proteus mirabilis MTCC 3158
[26] = tested on: Salmonella enterica subsp. enterica serovar Enteritidis MH91989
[27] = tested on: Escherichia coli O157:H7
[28] = tested on: Escherichia coli JW0013
[29] = tested on: Salmonella typhimurium SL1344
[30] = tested on: Escherichia coli JJ2487
[31] = tested on: Escherichia coli J2210
[32] = tested on: Escherichia coli MC1061

**Q.** `CC(C)C[C@H](NC(=O)[C@H](CCCCN)NC(=O)[C@@H]1CCCN1C(=O)[C@H](CC(C)C)NC(=O)[C@H](CO)NC(=O)[C@H](CCCN=C(N)N)NC(=O)[C@H](C)NC(=O)[C@H](CCCCN)NC(=O)[C@H](CCCCN)NC(=O)[C@H](Cc1ccccc1)NC(=O)[C@H](Cc1ccccc1)NC(=O)[C@H](CCCCN)NC(=O)[C@H](CCCCN)NC(=O)[C@H](Cc1c[nH]c2ccccc12)NC(=O)[C@@H](N)CO)C(=O)N[C@@H](Cc1ccccc1)C(=O)O` [SWKKFFKKARSLPKLF] was tested. Which MIC [1] did it give?
**A.** The MIC was 3.98 µM (≈ 8 µg/mL).

**Q.** What about the MIC [2] of the same molecule?
**A.** Its MIC is 0.994 µM (≈ 2 µg/mL).

**Q.** What about the MIC [3] of the same molecule?
**A.** Its MIC is no less than 63.6 µM.

**Q.** And the MIC [4]?
**A.** The MIC was 31.8 µM (≈ 64 µg/mL).

**Q.** And the MIC [5]?
**A.** Its MIC is 1.99 µM (≈ 4 µg/mL).

**Q.** What about the MIC [6] of the same molecule?
**A.** Its MIC is 0.994 µM (≈ 2 µg/mL).

**Q.** What about the MIC [7] of the same molecule?
**A.** Its MIC is 15.9 µM (≈ 32 µg/mL).

**Q.** And the MIC [8]?
**A.** Its MIC is no less than 63.6 µM.

**Q.** What about the MIC [9] of the same molecule?
**A.** Its MIC is 3.98 µM (≈ 8 µg/mL).

**Q.** What about the MIC [10] of the same molecule?
**A.** The MIC was 31.8 µM (≈ 64 µg/mL).

**Q.** And the MIC [11]?
**A.** Its MIC is 0.994 µM (≈ 2 µg/mL).

**Q.** What about the MIC [12] of the same molecule?
**A.** Its MIC is 31.8 µM (≈ 64 µg/mL).

**Q.** What about the MIC [13] of the same molecule?
**A.** Its MIC is 1.99 µM (≈ 4 µg/mL).

**Q.** What about the MIC [14] of the same molecule?
**A.** Its MIC is 15.9 µM (≈ 32 µg/mL).

**Q.** And the MIC [15]?
**A.** The MIC was 0.497 µM (≈ 1 µg/mL).

**Q.** And the MIC [16]?
**A.** The MIC was 15.9 µM (≈ 32 µg/mL).

**Q.** What about the MIC [17] of the same molecule?
**A.** Its MIC is 7.95 µM (≈ 16 µg/mL).

**Q.** And the MIC [18]?
**A.** Its MIC is 7.95 µM (≈ 16 µg/mL).

**Q.** What about the MIC [19] of the same molecule?
**A.** Its MIC is 7.95 µM (≈ 16 µg/mL).

**Q.** And the MIC [20]?
**A.** The MIC was 1.99 µM (≈ 4 µg/mL).

**Q.** What about the MIC [21] of the same molecule?
**A.** Its MIC is 3.98 µM (≈ 8 µg/mL).

**Q.** And the MIC [22]?
**A.** The MIC was 3.98 µM (≈ 8 µg/mL).

**Q.** What about the MIC [23] of the same molecule?
**A.** Its MIC is 15.9 µM (≈ 32 µg/mL).

**Q.** What about the MIC [24] of the same molecule?
**A.** The MIC was 7.95 µM (≈ 16 µg/mL).

**Q.** And the MIC [25]?
**A.** The MIC was no less than 63.6 µM.

**Q.** For `CC[C@H](C)[C@H](NC(=O)[C@H](CCCN=C(N)N)NC(=O)[C@H](CCCN=C(N)N)NC(=O)[C@@H]1CCCN1C(=O)[C@@H]1CCCN1C(=O)[C@H](CCCN=C(N)N)NC(=O)[C@@H]1CCCN1C(=O)[C@H](CCCN=C(N)N)NC(=O)[C@@H]1CCCN1C(=O)[C@H](CCCCN)NC(=O)[C@H](Cc1ccc(O)cc1)NC(=O)[C@@H]1CCCN1C(=O)[C@@H]1CCCN1C(=O)[C@H](CCCCN)NC(=O)[C@H](CC(=O)O)NC(=O)[C@@H](N)C(C)C)C(=O)N[C@@H](Cc1ccc(O)cc1)C(=O)N[C@@H](CC(N)=O)C(=O)N[C@@H](CCCN=C(N)N)C(N)=O` [VDKPPYKPRPRPPRRIYNR], which MIC [26] is on record?
**A.** Its MIC is 0.249 µM (≈ 0.6 µg/mL).

**Q.** What about the MIC [27] of the same molecule?
**A.** Its MIC is 0.998 µM (≈ 2.4 µg/mL).

**Q.** What about the MIC [28] of the same molecule?
**A.** Its MIC is 0.249 µM (≈ 0.6 µg/mL).

**Q.** What about the MIC [29] of the same molecule?
**A.** Its MIC is 0.249 µM (≈ 0.6 µg/mL).

**Q.** What about the MIC [30] of the same molecule?
**A.** The MIC was 0.328 µM (≈ 0.79 µg/mL).

**Q.** And the MIC [31]?
**A.** The MIC was 0.125 µM (≈ 0.3 µg/mL).

**Q.** And the MIC [32]?
**A.** Its MIC is 0.0623 µM (≈ 0.15 µg/mL).
